Key:
PDE 10A = molecular target: T1, PDE 10A (Homo sapiens, UniProt Q9Y233); assay: Inhibition of PDE 10A (scintillation proximity assay, [3H]cAMP substrate); type: biochemical; details: recombinant full-length PDE 10A expressed in Sf9 insect cells; 60 min at 20° C.
T1 construct: is expressed recombinantly in full length in Sf9 insect cells; made in house; host or cells: Sf9 insect cells (Bac-to-Bac baculovirus expression system)
Method: PDE 10A (WO 01/29 199, FIG. 1A) is expressed recombinantly in full length in Sf9 insect cells (Invitrogen, Carlsbad, Calif.) with the aid of the Bac-to-Bac™ Baculovirus expression system from Life Technologies (Gaithersburg, Md.). 48 h after infection, the cells are harvested and suspended in 20 ml (per 11 of culture) of lysis buffer (50 mM tris HCl, pH 7.4, 50 mM NaCl, 1 mM MgCl2, 1.5 mM EDTA, 10% glycerol plus 20 μl of Protease Inhibitor Cocktail Set II [CalBiochem, La Jolla, Calif. USA]). The cells are treated with ultrasound at 4° C. for 1 minute and subsequently centrifuged at 10 000 rpm for 30 minutes at 4° C. The supernatant (PDE 10A preparation) was collected and stored at −20° C.
The test substances are dissolved in 100% DMSO for the determination of their in vitro action on PDE 10A and serially diluted. Typically, dilution series from 200 μM to 1.6 μM are prepared (resulting final concentrations in the test: 4 μM to 0.032 μM). 2 μl of the diluted substance solutions in each case are introduced into the hollows of microtiter plates (Isoplate; Wallac Inc., Atlanta, Ga.). Subsequently, 50 μl of a dilution of the PDE 10A preparation described above are added. The dilution of the PDE 10A preparation is chosen such that during the later incubation less than 70% of the substrate is reacted (typical dilution: 1:10 000; dilution buffer: 50 mM tris/HCl pH 7.5, 8.3 mM MgCl2, 1.7 mM EDTA, 0.2% BSA). The substrate, [5′,8-^3H] adenosine 3′,5′-cyclic phosphate (1 μCi/μl; Amersham Pharmacia Biotech., Piscataway, N.J.) is diluted 1:2000 with assay buffer (50 mM tris/HCl pH 7.5, 8.3 mM MgCl2, 1.7 mM EDTA) to a concentration of 0.0005 μCi/μl. The enzyme reaction is finally started by addition of 50 μl (0.025 μCi) of the diluted substrate. The test batches are incubated for 60 min at 20° C. and the reaction is stopped by addition of 25 μl of a suspension containing 18 mg/ml of Yttrium Scintillation Proximity Beads (Amersham Pharmacia Biotech., Piscataway, N.J.). The microtiter plates are sealed using a film and allowed to stand for 60 min at 20° C. Subsequently, the plates are measured for 30 s per hollow in a Microbeta scintillation counter (Wallac Inc., Atlanta, Ga.). IC50 values are determined by means of graphic plotting of the substance concentration against the percentage inhibition.
The PDE 10A-inhibiting action of the compounds according to the invention may be shown by the following examples: […]

haloperidol catalepsy [1] = assay: Catalepsy test on rats (potentiation of haloperidol catalepsy); type: in vivo; details: 3 mg/kg intraperitoneal together with haloperidol (0.3 mg/kg s.c.), significant
Method: The period of time which elapses up to the correction of an imposed position can be used as a measure of the intensity of catalepsy.
A low dose of haloperidol (0.3 mg/kg s.c.) is given on its own 30 min before the catalepsy test or administered together with the compound. In order to measure the cataleptic behavior, both forepaws of the rat are put onto a block of wood of 9 cm height and 5.5 cm width×5.5 cm depth. The time which elapses until an animal pulls its forepaws down from the block again is recorded as the duration of catalepsy. All rats are taken from the block of wood after 60 seconds at the latest. The data acquired from each treatment group (10 animals in each case) are analyzed statistically by means of variance analysis (ANOVA).

haloperidol catalepsy [2] = details: described in EP-A 1 250 923; cited from earlier work

T1 sequence (Q9Y233 1-779 isoform Q9Y233-1): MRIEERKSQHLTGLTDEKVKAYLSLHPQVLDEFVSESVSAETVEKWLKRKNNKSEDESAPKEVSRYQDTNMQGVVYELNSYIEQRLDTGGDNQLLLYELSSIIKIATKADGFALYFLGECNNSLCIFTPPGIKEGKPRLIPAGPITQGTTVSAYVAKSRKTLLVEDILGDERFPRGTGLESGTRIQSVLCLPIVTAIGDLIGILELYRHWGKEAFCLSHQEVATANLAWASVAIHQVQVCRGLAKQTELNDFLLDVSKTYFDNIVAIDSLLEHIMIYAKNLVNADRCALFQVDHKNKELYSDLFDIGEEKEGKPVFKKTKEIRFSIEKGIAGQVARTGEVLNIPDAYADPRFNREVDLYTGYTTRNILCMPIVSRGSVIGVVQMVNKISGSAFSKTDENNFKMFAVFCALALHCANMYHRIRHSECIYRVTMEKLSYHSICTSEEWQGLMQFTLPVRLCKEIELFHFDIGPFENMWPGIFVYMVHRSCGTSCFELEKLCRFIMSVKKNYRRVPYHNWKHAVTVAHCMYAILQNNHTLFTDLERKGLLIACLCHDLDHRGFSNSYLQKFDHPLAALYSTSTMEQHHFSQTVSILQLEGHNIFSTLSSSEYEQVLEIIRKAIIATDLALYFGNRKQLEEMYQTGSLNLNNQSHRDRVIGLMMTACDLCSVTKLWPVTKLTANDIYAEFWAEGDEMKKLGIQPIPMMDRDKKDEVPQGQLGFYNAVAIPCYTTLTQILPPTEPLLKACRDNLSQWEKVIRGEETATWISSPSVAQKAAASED

| IC50 (PDE 10A) [nM] | SMILES | increase in the duration of catalepsy (haloperidol catalepsy [1]) [%] | effect on haloperidol catalepsy (haloperidol catalepsy [2]) |
| --- | --- | --- | --- |
| 38 | COc1cc(Oc2nc(-c3ccc(C)nc3)nn3c(C)nc(C)c23)cc(OC)c1OC [Example 9] | – | – |
| 8 | COc1cc(Oc2nc(-c3cccnc3)nn3c(C(C)C)nc(C)c23)cc(OC)c1OC [Example 10, 7-isopropyl-5-methyl-2-(3-pyridinyl)-4-(3,4,5-trimethoxyphenoxy)imidazo[5,1-f][1,2,4]triazine] | – | – |
| 93 | COc1cc(Nc2nc(-c3cnc(C)s3)nn3c(C)nc(C)c23)cc(OC)c1OC [Example 12, 5,7-Dimethyl-2-(2-methyl-1,3-thiazol-5-yl)-N-(3,4,5-trimethoxyphenyl)imidazo-[5,1-f][1,2,4]triazin-4-amine] | – | – |
| 150 | COc1cc(Nc2nc(-c3ccncc3)nn3c(C)nc(C)c23)cc(OC)c1OC [Example 14] | – | – |
| 30 | COc1cc(Nc2nc(-c3cccnc3)nn3c(C)nc(C)c23)cc(OC)c1OC [Example 16] | 103 | – |
| – | COc1ccc(Cc2nccc3cc(OC)c(OC)cc23)cc1OC [papaverine] | – | potentiation of haloperidol catalepsy |

From US20060166992A1, “Heterocyclically substituted imidazotriazines” (Bayer Healthcare A G, priority 2002, published 2006)
